Target: WT HIV-1 protease (Human immunodeficiency virus type 1 group M subtype B (isolate HXB2) (HIV-1), UniProt P04585)
Assay: Assay for inhibition of microbial expressed HIV protease (Procedure A, peptide substrate, HPLC fluorescence detection)
Assay type: biochemical
Conditions: WT HIV-1 protease 10 pM, substrate 400 micromolar, pH 5.5, 30 min preincubation, 1 hour at 30° C.; read-out: Enzyme inhibition IC50
Description: The inhibition of WT HIV-1 protease was studied using the reaction of the protease (expressed in Eschericia coli) with a peptide substrate [Val-Ser-Gln-Asn-(betanaphthyl)Ala-Pro-Ile-Val (SEQ ID NO:1)]. Compounds were tested using Procedure A. In Procedure A, the test compound was first preincubated with the enzyme in assay buffer (50 mM sodium acetate, pH 5.5, 100 mM NaCl, and 0.1% BSA) for 30 minutes at room temperature. Substrate was then added to 400 micromolar in a total volume of 80 microliters containing 10 picomolar HIV-1 protease and the reaction was incubated for 1 hour at 30° C. The reaction was quenched with the addition of 120 microliters of 10% phosphoric acid. The product formation was determined after separation of product and substrate on a Zorbax Eclipse XDB-C18 column (Agilent Technologies, Santa Clara, Calif.) connected to an Agilent 1100 high performance liquid chromatography system with fluorescence detection (excitation 270 nanometer and emission 330 nanometer).

SMILES | IC50 [nM]
COC(=O)N[C@H](C(=O)NCc1csc(C(CO)N(CCC(C)C)S(=O)(=O)c2ccccc2)c1)C(c1ccccc1)c1ccccc1 (stereo partly drawn) [Example 1, N-[(5-{2-hydroxy-1-[(3-methylbutyl)(phenylsulfonyl)amino]ethyl}thiophen-3-yl)methyl]-Nα-(methoxycarbonyl)-β-phenyl-L-phenylalaninamide] | 72.8
COC(=O)N[C@H](C(=O)NCc1cnc(C(CO)N(CCC(C)C)S(=O)(=O)c2ccccc2)s1)C(c1ccccc1)c1ccccc1 (stereo partly drawn) [Example 2, N-[(2-{2-hydroxy-1-[(3-methylbutyl)(phenylsulfonyl)amino]ethyl}-1,3-thiazol-5-yl)methyl]-Nα-(methoxycarbonyl)-β-phenyl-L-phenylalaninamide] | 250
COC(=O)N[C@H](C(=O)NCc1ncc(C(CO)N(CCC(C)C)S(=O)(=O)c2ccccc2)s1)C(c1ccccc1)c1ccccc1 (stereo partly drawn) [Example 3, N-[(5-{2-hydroxy-1-[(3-methylbutyl)(phenylsulfonyl)amino]ethyl}-1,3-thiazol-2-yl)methyl]-Nα-(methoxycarbonyl)-β-phenyl-L-phenylalaninamide] | 12.1
COC(=O)N[C@H](C(=O)NCc1ccc(C(CO)N(CCC(C)C)S(=O)(=O)c2ccccc2)s1)C(c1ccccc1)c1ccccc1 (stereo partly drawn) [Example 4] | 8.81
COC(=O)N[C@H](C(=O)NCc1ccc(C(CO)N(CCC(C)C)S(=O)(=O)c2ccc(CO)cc2)s1)C(c1ccccc1)c1ccccc1 (stereo partly drawn) [Example 5] | 0.54
COC(=O)N[C@H](C(=O)NCc1cc(C(CO)N(CCC(C)C)S(=O)(=O)c2ccccc2)cs1)C(c1ccccc1)c1ccccc1 (stereo partly drawn) [Example 6, N-[(4-{2-hydroxy-1-[(3-methylbutyl)(phenylsulfonyl)amino]ethyl}thiophen-2-yl)methyl]-Nα-(methoxycarbonyl)-β-phenyl-L-phenylalaninamide] | 42.7
COC(=O)N[C@H](C(=O)NC(C)c1ccc(C(CO)N(CCC(C)C)S(=O)(=O)c2ccccc2)s1)C(c1ccccc1)c1ccccc1 (stereo partly drawn) [Example 7, N-[1-(5-{2-hydroxy-1-[(3-methylbutyl)(phenylsulfonyl)amino]ethyl}thiophen-2-yl)ethyl]-Nα-(methoxycarbonyl)-β-phenyl-L-phenylalaninamide] | 3.5
COC(=O)N[C@H](C(=O)NC(C)c1ccc(C(CO)N(CCC(C)C)S(=O)(=O)c2ccc(CO)cc2)s1)C(c1ccccc1)c1ccccc1 (stereo partly drawn) [Example 8] | 0.31
CCC(NC(=O)[C@@H](NC(=O)OC)C(c1ccccc1)c1ccccc1)c1ccc(C(CO)N(CCC(C)C)S(=O)(=O)c2ccc(CO)cc2)s1 (stereo partly drawn) [Example 9] | 0.63
COC(=O)N[C@H](C(=O)NCc1ccc([C@@H](CO)N(CC(C)C)S(=O)(=O)c2ccc(N)cc2)s1)C(c1ccccc1)c1ccccc1 [Example 10, N-({5-[(1R)-1-{[(4-aminophenyl)sulfonyl](2-methylpropyl)amino}-2-hydroxyethyl]thiophen-2-yl}methyl)-Nα-(methoxycarbonyl)-β-phenyl-L-phenylalaninamide] | 2.6
COC(=O)N[C@H](C(=O)NCc1ccc([C@@H](CO)N(CC2CC(F)(F)C2)S(=O)(=O)c2ccc(N)cc2)s1)C(c1ccccc1)c1ccccc1 [Example 11] | 1.61
COC(=O)N[C@H](C(=O)NCc1ccc([C@@H](CO)N(C(C)C)S(=O)(=O)c2ccc(N)cc2)s1)C(c1ccccc1)c1ccccc1 [Example 12] | 18.8
COC(=O)N[C@H](C(=O)NCc1ccc([C@@H](CO)N(Cc2cc3cccnc3[nH]2)S(=O)(=O)c2ccc(N)cc2)s1)C(c1ccccc1)c1ccccc1 [Example 13] | 3.9
COC(=O)N[C@H](C(=O)NCc1ccc([C@@H](CO)N(CC(C)C)S(=O)(=O)c2cccc(CC(C)(C)O)c2)s1)C(c1ccccc1)c1ccccc1 [Example 14] | 4.1
COC(=O)N[C@H](C(=O)NCc1ccc([C@@H](CO)N(CC2CC(F)(F)C2)S(=O)(=O)c2cccc(CC(C)(C)O)c2)s1)C(c1ccccc1)c1ccccc1 [Example 15] | 6.6
COC(=O)N[C@H](C(=O)NCc1ccc([C@@H](CO)N(CC2CC(F)(F)C2)S(=O)(=O)c2ccc3cc[nH]c(=O)c3c2)s1)C(c1ccccc1)c1ccccc1 [Example 16] | 0.44
COC(=O)N[C@H](C(=O)NCc1ccc([C@@H](CO)N(CC2CC(F)(F)C2)S(=O)(=O)c2ccc3c(c2)COCC3)s1)C(c1ccccc1)c1ccccc1 [Example 17] | 2.4
COC(=O)N[C@H](C(=O)NCc1ccc([C@@H](CO)N(Cc2nonc2C)S(=O)(=O)c2ccc(N)cc2)s1)C(c1ccccc1)c1ccccc1 [Example 18] | 6.95
COC(=O)N[C@H](C(=O)NCc1ccc([C@@H](CO)N(Cc2cnon2)S(=O)(=O)c2ccc(N)cc2)s1)C(c1ccccc1)c1ccccc1 [Example 19] | 33.8
COC(=O)N[C@H](C(=O)NCc1ccc(C(CO)N(Cc2cnon2)S(=O)(=O)c2ccc(N)cc2)s1)C(c1ccccc1)c1ccccc1 (stereo partly drawn) [Example 20] | 6.97
COC(=O)N[C@H](C(=O)NCc1ccc(C(CO)N(C(C)C)S(=O)(=O)c2ccc3scnc3c2)s1)C(c1ccccc1)c1ccccc1 (stereo partly drawn) [Example 21] | 62.4

SMILES | IC50 [nM]
COC(=O)N[C@H](C(=O)NCc1ccc([C@@H](CO)N(CC(C)C)S(=O)(=O)c2ccc3scnc3c2)s1)C(c1ccccc1)c1ccccc1 [Example 22] | 6.1
COC(=O)N[C@H](C(=O)NCc1ccc([C@H](CO)N(CC(C)C)S(=O)(=O)c2ccc3scnc3c2)s1)C(c1ccccc1)c1ccccc1 [Example 23] | 60.9
COC(=O)N[C@H](C(=O)NCc1ccc(C(CO)N(Cc2cc3ccccc3[nH]2)S(=O)(=O)c2ccc3scnc3c2)s1)C(c1ccccc1)c1ccccc1 (stereo partly drawn) [Example 24] | 13.6
COC(=O)N[C@H](C(=O)NCc1ccc([C@@H](CO)N(Cc2cc3ccccc3[nH]2)S(=O)(=O)c2ccc3scnc3c2)s1)C(c1ccccc1)c1ccccc1 [Example 25] | 7.99
COC(=O)N[C@H](C(=O)NCc1ccc(C(CO)N(Cc2cccnc2OC)S(=O)(=O)c2ccc3scnc3c2)s1)C(c1ccccc1)c1ccccc1 (stereo partly drawn) [Example 26] | 31
COC(=O)N[C@H](C(=O)NCc1ccc(C(CO)N(Cc2ccnc(OC)c2)S(=O)(=O)c2ccc3scnc3c2)s1)C(c1ccccc1)c1ccccc1 (stereo partly drawn) [Example 27] | 15.5
COC(=O)N[C@H](C(=O)NCc1ccc([C@@H](CO)N(Cc2ccnc(OC)c2)S(=O)(=O)c2ccc3scnc3c2)s1)C(c1ccccc1)c1ccccc1 [Example 28] | 1.45
COC(=O)N[C@H](C(=O)NCc1ccc([C@H](CO)N(Cc2ccnc(OC)c2)S(=O)(=O)c2ccc3scnc3c2)s1)C(c1ccccc1)c1ccccc1 [Example 29] | 106
COC(=O)N[C@H](C(=O)NCc1ccc(C(CO)N(Cc2cnn(S(=O)(=O)N(C)C)c2)S(=O)(=O)c2ccc3scnc3c2)s1)C(c1ccccc1)c1ccccc1 (stereo partly drawn) [Example 30] | 5.13
COC(=O)N[C@H](C(=O)NCc1ccc(C(CO)N(Cc2cn[nH]c2)S(=O)(=O)c2ccc3scnc3c2)s1)C(c1ccccc1)c1ccccc1 (stereo partly drawn) [Example 31] | 3.62
COC(=O)N[C@H](C(=O)NCc1ccc([C@@H](CO)N(Cc2cn[nH]c2)S(=O)(=O)c2ccc3scnc3c2)s1)C(c1ccccc1)c1ccccc1 [Example 32] | 2.27
COC(=O)N[C@H](C(=O)NCc1ccc([C@H](CO)N(Cc2cn[nH]c2)S(=O)(=O)c2ccc3scnc3c2)s1)C(c1ccccc1)c1ccccc1 [Example 33] | 96.6
COC(=O)N[C@H](C(=O)NCc1ccc(C(CO)N(Cc2cc3cccnc3[nH]2)S(=O)(=O)c2ccc3scnc3c2)s1)C(c1ccccc1)c1ccccc1 (stereo partly drawn) [Example 34] | 35
COC(=O)N[C@H](C(=O)NCc1ccc([C@@H](CO)N(Cc2cc3cccnc3[nH]2)S(=O)(=O)c2ccc3scnc3c2)s1)C(c1ccccc1)c1ccccc1 [Example 35] | 11.9
COC(=O)N[C@H](C(=O)NCc1ccc(C(CO)N(CC2CC(F)(F)C2)S(=O)(=O)c2ccc3c(c2)CCC3O)s1)C(c1ccccc1)c1ccccc1 (stereo partly drawn) [Example 36] | 3.65
COC(=O)N[C@H](C(=O)NCc1ccc([C@@H](CO)N(CC2CC(F)(F)C2)S(=O)(=O)c2ccc3c(c2)CCC3O)s1)C(c1ccccc1)c1ccccc1 (stereo partly drawn) [Example 37] | 5.65
COC(=O)N[C@H](C(=O)NCc1ccc([C@@H](CO)N(CC2CC(F)(F)C2)S(=O)(=O)c2ccc3c(c2)C(O)CC3)s1)C(c1ccccc1)c1ccccc1 (stereo partly drawn) [Example 38] | 13.6
COC(=O)N[C@H](C(=O)NCc1ccc([C@@H](CO)N(CC2CC(F)(F)C2)S(=O)(=O)c2cccc(C(=O)c3ccccn3)c2)s1)C(c1ccccc1)c1ccccc1 [Example 40] | 175
COC(=O)N[C@H](C(=O)NCc1ccc([C@@H](CO)N(CC2CC(F)(F)C2)S(=O)(=O)c2ccc3cc[nH]c3c2)s1)C(c1ccccc1)c1ccccc1 [Example 41] | 8.83
COC(=O)N[C@H](C(=O)NCc1ccc([C@@H](CO)N(CC2CC(F)(F)C2)S(=O)(=O)c2cccc(Cc3ccccn3)c2)s1)C(c1ccccc1)c1ccccc1 [Example 42] | 110
COC(=O)N[C@H](C(=O)NCc1ccc([C@@H](CO)N(CC2CC(F)(F)C2)S(=O)(=O)c2ccc(N)c(F)c2)s1)C(c1ccccc1)c1ccccc1 [Example 43] | 5.04
